Measurements as given in patent US20220317138A1, “METHODS FOR DETERMINING THE CONCENTRATION OF A CARBAPENEM ANTIBIOTIC IN A BIOLOGICAL SAMPLE” (priority 2019, published 2022).
Read-outs that look alike come from different tables or passages of the source.

B1: Oxa48: beta-lactamase class D OXA-48 from Klebsiella pneumoniae, used as biosensor (protein, listed as Klebsiella pneumoniae)
chain: MRVLALSAVFLVASIIGMPAVAKEWQENKSWNAHFTEHKSQGVVVLWNENKQQGFTNNLKRANQAFLPASTFKIPNSLIALDLGVVKDEHQVFKWDGQTRDIATWNRDHNLITAMKYSVVPVYQEFARQIGEARMSKMLHAFDYGNEDISGNVDSFWLDGGIRISATEQISFLRKLYHNKLHVSERSQRIVKQAMLTEANGDYIIRAKTGYSTRIEPKIGWWVGWVELDDNVWFFAMNMDMPTSDGLGLRQAITKEVLKQEKIIP
modifications: PEPTIDE (1)..(22) SIGNAL PEPTIDE
notes: beta-lactamase class D OXA-48 from Klebsiella pneumoniae, used as biosensor

How the values were obtained:
[1] = tested on: AmpCHD beta-lactamase (class C); experiment: Screening of beta-lactamases by competition, nitrocefin as reporter substrate; type: biochemical
[2] = target: P99 beta-lactamase (class C) (Enterobacter cloacae, UniProt P05364); type: biochemical; settings: nitrocefin reporter
[3] = target: T1, beta-lactamase class D OXA-48 (Klebsiella pneumoniae, UniProt Q6XEC0); type: biochemical; settings: for Accuracy <> (average) / [Meropenem] <> (average): average of 5 replicates
Source text: The specificity (or selectivity) of the method according to an embodiment of the invention is defined as the ability of the method to measure the concentration of a carbapenem antibiotic (such as meropenem) in presence of an excess of another beta-lactam antibiotic (second beta-lactam) currently used in ICUs (see Table 4).
To determine the specificity of the method illustrating the invention for carbapenem antibiotics, in particular meropenem, versus other beta-lactam antibiotics, stock-solutions of second beta-lactam antibiotics were prepared in water.
An excess of a second beta-lactam concentration of up to 10 times the concentration of meropenem was used.

[4] = tested on: Per2 beta-lactamase (class A); experiment: Screening of beta-lactamases by competition, nitrocefin as reporter substrate; type: biochemical
[5] = target: T1, beta-lactamase class D OXA-48; type: biochemical; settings: calibration curves FIG. 2, FIG. 3
[6] = target: Imp1 beta-lactamase (class B) (Serratia marcescens, UniProt P52699); type: biochemical; settings: nitrocefin reporter
[7] = tested on: Imp4 beta-lactamase (class B); experiment: Screening of beta-lactamases by competition, nitrocefin as reporter substrate; type: biochemical
[8] = Activity loss of the beta-lactamase in 1 h; type: physicochemical; settings: enzyme activity
[9] = Meropenem 1.2 mg/L, second β-lactam 10.0 mg/L (8.4 times excess)
[10] = Meropenem 20.0 mg/L, second β-lactam 200.0 mg/L (10 times excess)

P99 beta-lactamase (class C), sequence (P05364 21-381): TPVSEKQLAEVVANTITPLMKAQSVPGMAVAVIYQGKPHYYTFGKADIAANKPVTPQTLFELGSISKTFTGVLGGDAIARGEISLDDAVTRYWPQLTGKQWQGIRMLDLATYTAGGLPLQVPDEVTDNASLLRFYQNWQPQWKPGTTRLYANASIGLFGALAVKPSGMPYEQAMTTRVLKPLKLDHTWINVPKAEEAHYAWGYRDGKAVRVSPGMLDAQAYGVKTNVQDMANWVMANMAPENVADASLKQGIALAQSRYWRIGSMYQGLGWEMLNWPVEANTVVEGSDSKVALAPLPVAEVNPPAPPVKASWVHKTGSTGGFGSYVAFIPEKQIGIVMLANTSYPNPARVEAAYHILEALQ
Imp1 beta-lactamase (class B), sequence (P52699 19-246 limits assumed): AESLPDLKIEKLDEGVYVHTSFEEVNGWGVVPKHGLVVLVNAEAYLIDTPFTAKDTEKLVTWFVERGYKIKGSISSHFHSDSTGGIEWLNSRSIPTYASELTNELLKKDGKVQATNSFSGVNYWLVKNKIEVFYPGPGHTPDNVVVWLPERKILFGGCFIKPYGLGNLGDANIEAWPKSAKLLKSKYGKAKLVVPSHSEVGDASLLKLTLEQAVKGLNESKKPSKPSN

Molecule	hydrolysis rate symbol, (Vmax/V0)-1 [2]	Accuracy <> (average) [3, 9] [%]	[Meropenem] <> (average) [3, 9] [mg/L]	Accuracy Replicate 1 [3, 9] [%]	[Meropenem] Replicate 1 [3, 9] [mg/L]	Accuracy Replicate 2 [3, 9] [%]	[Meropenem] Replicate 2 [3, 9] [mg/L]	Accuracy Replicate 3 [3, 9] [%]	[Meropenem] Replicate 3 [3, 9] [mg/L]	Accuracy Replicate 4 [3, 9] [%]	[Meropenem] Replicate 4 [3, 9] [mg/L]	Accuracy Replicate 5 [3, 9] [%]	[Meropenem] Replicate 5 [3, 9] [mg/L]	Accuracy <> (average) [3, 10] [%]	[Meropenem] <> (average) [3, 10] [mg/L]	Accuracy Replicate 1 [3, 10] [%]	[Meropenem] Replicate 1 [3, 10] [mg/L]	Accuracy Replicate 2 [3, 10] [%]	[Meropenem] Replicate 2 [3, 10] [mg/L]	Accuracy Replicate 3 [3, 10] [%]	also measured
CC1(C)S[C@@H]2[C@H](NC(=O)[C@H](N)c3ccccc3)C(=O)N2[C@H]1C(=O)O [Pentrexyl ®]	++ (1-10)	112	1.3	122	1.4	112	1.3	110	1.3	109	1.3	108	1.3	95	21.1	92	20.5	93	20.8	96	hydrolysis rate symbol, (Vmax/V0)-1 [1]: +++ (10-100); [Meropenem] Replicate 3 [3, 10]: 21.4 mg/L; Accuracy Replicate 4 [3, 10]: 95%; [Meropenem] Replicate 4 [3, 10]: 21.3 mg/L; Accuracy Replicate 5 [3, 10]: 98%; [Meropenem] Replicate 5 [3, 10]: 21.8 mg/L; hydrolysis rate symbol, (Vmax/V0)-1 [4]: + (0.1-1)
C[C@@H](O)[C@H]1C(=O)N2C(C(=O)O)=C(S[C@@H]3CN[C@H](CNS(N)(=O)=O)C3)[C@H](C)[C@H]12 [doripenem]																					determining the concentration using OXA-48 [5]: possible
CC(C)(O/N=C(\C(=O)N[C@@H]1C(=O)N2C(C(=O)[O-])=C(C[n+]3ccccc3)CS[C@H]12)c1csc(N)n1)C(=O)O [Ceftazidime]	+ (0.1-1)	111	1.3	108	1.3	105	1.2	108	1.3	112	1.3	118	1.4	100	20.1	102	20.6	97	19.6	100	[Meropenem] Replicate 3 [3, 10]: 20.1 mg/L; Accuracy Replicate 4 [3, 10]: 100%; [Meropenem] Replicate 4 [3, 10]: 20.2 mg/L; Accuracy Replicate 5 [3, 10]: 99%; [Meropenem] Replicate 5 [3, 10]: 20.0 mg/L
CO/N=C(\C(=O)N[C@@H]1C(=O)N2C(C(=O)O)=C(COC(C)=O)CS[C@H]12)c1csc(N)n1 [Cefotaxim ® Sandoz]	++++ (>100)	111	1.3	109	1.3	116	1.3	107	1.2	110	1.3	115	1.3	92	20.5	93	20.8	94	20.9	91	hydrolysis rate symbol, (Vmax/V0)-1 [6]: + (0.1-1); hydrolysis rate symbol, (Vmax/V0)-1 [1]: + (0.1-1); hydrolysis rate symbol, (Vmax/V0)-1 [7]: + (0.1-1); [Meropenem] Replicate 3 [3, 10]: 20.2 mg/L; Accuracy Replicate 4 [3, 10]: 91%; [Meropenem] Replicate 4 [3, 10]: 20.2 mg/L; Accuracy Replicate 5 [3, 10]: 91%; [Meropenem] Replicate 5 [3, 10]: 20.2 mg/L
CO/N=C(\C(=O)N[C@@H]1C(=O)N2C(C(=O)O)=C(COC(N)=O)CS[C@H]12)c1ccco1 [Zinacef ®]	++++ (>100)	104	1.2	108	1.3	97	1.1	100	1.2	104	1.2	111	1.3	98	21.9	98	21.8	98	21.9	95	hydrolysis rate symbol, (Vmax/V0)-1 [6]: + (0.1-1); hydrolysis rate symbol, (Vmax/V0)-1 [1]: + (0.1-1); [Meropenem] Replicate 3 [3, 10]: 21.2 mg/L; Accuracy Replicate 4 [3, 10]: 101%; [Meropenem] Replicate 4 [3, 10]: 22.4 mg/L; Accuracy Replicate 5 [3, 10]: 99%; [Meropenem] Replicate 5 [3, 10]: 22.0 mg/L
C[C@@H](O)[C@H]1C(=O)N2C(C(=O)O)=C(S[C@@H]3CN[C@H](C(=O)Nc4cccc(C(=O)O)c4)C3)[C@H](C)[C@H]12 [ertapenem]																					determining the concentration using OXA-48 [5]: possible
CO/N=C(\C(=O)N[C@@H]1C(=O)N2C(C(=O)O)=C(CSc3nc(=O)c(O)nn3C)CS[C@H]12)c1csc(N)n1 [Ceftria ®]	+++ (10-100)	112	1.3	105	1.2	111	1.3	112	1.3	116	1.3	113	1.3	95	21.1	100	22.3	96	21.4	96	[Meropenem] Replicate 3 [3, 10]: 21.4 mg/L; Accuracy Replicate 4 [3, 10]: 90%; [Meropenem] Replicate 4 [3, 10]: 20.0 mg/L; Accuracy Replicate 5 [3, 10]: 91%; [Meropenem] Replicate 5 [3, 10]: 20.4 mg/L
Cc1onc(-c2ccccc2)c1C(=O)N[C@@H]1C(=O)N2[C@@H]1SC(C)(C)[C@@H]2C(=O)O [Penstapho ®]	++++ (>100)	119	1.4	115	1.3	123	1.4	121	1.4	122	1.4	116	1.3	103	22.9	98	21.8	104	23.2	104	hydrolysis rate symbol, (Vmax/V0)-1 [1]: ++ (1-10); [Meropenem] Replicate 3 [3, 10]: 23.1 mg/L; Accuracy Replicate 4 [3, 10]: 107%; [Meropenem] Replicate 4 [3, 10]: 23.8 mg/L; Accuracy Replicate 5 [3, 10]: 102%; [Meropenem] Replicate 5 [3, 10]: 22.7 mg/L; hydrolysis rate symbol, (Vmax/V0)-1 [4]: ++ (1-10)
B1																					Activity loss in 1 h [8]: 0%
